# Test results from patent US10308644B2, “Heterocyclic compounds as immunomodulators” (Incyte Corporation, priority 2016, dated 2019).
# Target: PD-1/PD-L1 (Homo sapiens (Human), UniProt Q9NZQ7)
# Assay: PD-1/PD-L1 Homogeneous Time-Resolved Fluorescence (HTRF) Binding Assay
# Conditions: recombinant human PD-1 (3 nM) and PD-L1 (10 nM), 25° C., PBS pH 7.4
# Summary of the method: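 Fc-tagged human PD-1 (25-167, 3 nM) and His-tagged PD-L1 (19-238, 10 nM) preincubated with inhibitor 40 min in PBS pH 7.4, 0.05% Tween-20, 0.1% BSA, 1% DMSO, 25 °C. Binding detected by HTRF (Eu anti-IgG/APC anti-His, 665/620 nm) after 60 min; IC50 from percent control activity.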
# Sequence of PD-1/PD-L1 (Q9NZQ7 19-238): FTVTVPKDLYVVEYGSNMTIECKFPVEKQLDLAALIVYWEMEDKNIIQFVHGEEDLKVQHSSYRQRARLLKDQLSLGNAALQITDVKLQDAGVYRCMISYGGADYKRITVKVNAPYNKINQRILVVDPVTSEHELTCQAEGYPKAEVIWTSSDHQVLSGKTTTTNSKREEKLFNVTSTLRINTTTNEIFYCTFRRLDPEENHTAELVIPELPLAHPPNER
row,SMILES,IC50
1,"Cc1c(Nc2nccc3cc(CN4CC[C@@H](O)C4)cnc23)cccc1-c1cccc(-c2nc3cc(CNC45CCC(C(=O)O)(CC4)C5)cc(C#N)c3o2)c1C [Example 183, (R)-4-((7-cyano-2-(3′-(3-((3-hydroxypyrrolidin-1-yl)methyl)-1,7-naphthyridin-8-ylamino)-2,2′-dimethylbiphenyl-3-yl)benzo [d]oxazol-5-yl)methylamino)bicyclo[2.2.1]heptane-1-carboxylic acid]",≤ 10 nM
2,"CCN(C)CC(=O)N1Cc2nc(-c3cccc(-c4cccc(-c5nc6cc(CN7CC[C@@H](C(=O)O)C7)cc(C#N)c6o5)c4C)c3C)sc2C1 [Example 114, (R)-1-((7-cyano-2-(3′-(5-(2-(ethyl(methyl)amino)acetyl)-5,6-dihydro-4H-pyrrolo[3,4-d]thiazol-2-yl)-2,2′-dimethylbiphenyl-3-yl)benzo[d]oxazol-5-yl)methyl)pyrrolidine-3-carboxylic acid]",≤ 10 nM
3,"Cc1c(Nc2nccc3cc(CN4CC[C@H](O)C4)cnc23)cccc1-c1cccc(-c2nc3cc(CN4CCCC[C@H]4C(=O)O)cc(Cl)c3o2)c1C [Example 5, (S)-1-((7-chloro-2-(3′-((3-(((S)-3-hydroxypyrrolidin-1-yl)methyl)-1,7-naphthyridin-8-yl)amino)-2,2′-dimethyl-[1,1′-biphenyl]-3-yl)benzo[d]oxazol-5-yl)methyl)piperidine-2-carboxylic acid]",≤ 10 nM
4,"Cc1c(-c2nc3cc(CN4CC[C@@H](C(=O)O)C4)cc(Cl)c3o2)cccc1-c1cccc(-c2nc3c(s2)CN(C)CC3)c1C [Example 71, (R)-1-((7-chloro-2-(2,2′-dimethyl-3′-(5-methyl-4,5,6,7-tetrahydrothiazolo[5,4-c]pyridin-2-yl)-[1,1′-biphenyl]-3-yl)benzo[d]oxazol-5-yl)methyl)pyrrolidine-3-carboxylic acid]",≤ 10 nM

# The remaining lines, values ahead:
row,IC50,SMILES
1,≤ 10 nM,"CCN(C1CCN(c2cccc(-c3cccc(-c4nc5cc(CN6CC[C@@H](C(=O)O)C6)cc(C#N)c5o4)c3C)c2Cl)CC1)[C@H]1C[C@@H](O)C1 [Example 49, (R)-1-((2-(2′-chloro-3′-(4-(ethyl((1s,3s)-3-hydroxycyclobutyl)amino)piperidin-1-yl)-2-methylbiphenyl-3-yl)-7-cyanobenzo[d]oxazol-5-yl)methyl)pyrrolidine-3-carboxylic acid]"
2,≤ 10 nM,"Cc1c(-c2nc3c(o2)CN(C(=O)CN(C)C)C3)cccc1-c1cccc(-c2nc3cc(CN4CC[C@@H](C(=O)O)C4)cc(C#N)c3o2)c1C [Example 122, (R)-1-((7-cyano-2-(3′-(5-(dimethylglycyl)-5,6-dihydro-4H-pyrrolo[3,4-d]oxazol-2-yl)-2,2′-dimethyl-[1,1′-biphenyl]-3-yl)benzo[d]oxazol-5-yl)methyl)pyrrolidine-3-carboxylic acid]"
3,≤ 10 nM,"Cc1c(-c2nc3cc(CN4CC5(CC(C(=O)O)C5)C4)cc(C#N)c3o2)cccc1-c1cccc(-c2nc3c(s2)CN(C(=O)CN2CC[C@H](O)C2)C3)c1C [Example 233, 2-((7-cyano-2-(3′-(5-(2-((S)-3-hydroxypyrrolidin-1-yl)acetyl)-5,6-dihydro-4H-pyrrolo[3,4-d]thiazol-2-yl)-2,2′-dimethylbiphenyl-3-yl)benzo[d]oxazol-5-yl)methyl)-2-azaspiro[3.3]heptane-6-carboxylic acid]"
4,≤ 10 nM,"Cc1c(-c2nc3cc(CN4CC[C@@H](O)C4)cc(C#N)c3o2)cccc1-c1cccc(NC(=O)c2nc3c(n2C)CCN(C[C@H]2CC[C@H](C(=O)O)CC2)C3)c1Cl [Example 261, trans-4-((2-(2-chloro-3′-(7-cyano-5-(((R)-3-hydroxypyrrolidin-1-yl)methyl)benzo[d]oxazol-2-yl)-2′-methylbiphenyl-3-ylcarbamoyl)-1-methyl-6,7-dihydro-1H-imidazo[4,5-c]pyridin-5 (4H)-yl)methyl)cyclohexanecarboxylic acid]"
